Experimental data reported in ChEMBL document CHEMBL1255438, “Comparative activities of TR-700 (torezolid) against staphylococcal blood isolates collected in Spain” (2010).
Converted amounts (≈) assume the structure as drawn.

Columns and labels:
Assay type in all cases: functional
Staphylococcus aureus [1] = experiment: Antimicrobial activity against linezolid-susceptible Staphylococcus aureus by CLSI method
Staphylococcus aureus [2] = experiment: Antimicrobial activity against oxacillin-susceptible Staphylococcus aureus by CLSI method
Staphylococcus aureus [3] = experiment: Antimicrobial activity against oxacillin-resistant Staphylococcus aureus by CLSI method
Staphylococcus aureus [4] = experiment: Antimicrobial activity against linezolid-resistant Staphylococcus aureus by CLSI method
Staphylococcus [5] = experiment: Antimicrobial activity against linezolid-susceptible coagulase-negative Staphylococcus by CLSI method
Staphylococcus aureus [6] = experiment: Antimicrobial activity against linezolid-resistant Staphylococcus aureus assessed as inhibition of microbial growth at 0.5 ug/ml by CLSI method
Staphylococcus aureus [7] = experiment: Antimicrobial activity against oxacillin-resistant Staphylococcus aureus assessed as inhibition of microbial growth at =< 0.25 ug/ml by CLSI method
Staphylococcus aureus [8] = experiment: Antimicrobial activity against oxacillin-resistant Staphylococcus aureus assessed as inhibition of microbial growth at 0.5 ug/ml by CLSI method
Staphylococcus [9] = experiment: Antimicrobial activity against oxacillin-susceptible coagulase-negative Staphylococcus aureus by CLSI method
Staphylococcus [10] = experiment: Antimicrobial activity against oxacillin-resistant coagulase-negative Staphylococcus aureus by CLSI method
Staphylococcus [11] = experiment: Antimicrobial activity against linezolid-resistant coagulase-negative Staphylococcus by CLSI method
Staphylococcus aureus [12] = experiment: Antimicrobial activity against linezolid-susceptible Staphylococcus aureus assessed as inhibition of microbial growth at =< 0.25 ug/ml by CLSI method
Staphylococcus aureus [13] = experiment: Antimicrobial activity against linezolid-susceptible Staphylococcus aureus assessed as inhibition of microbial growth at 0.5 ug/ml by CLSI method
Staphylococcus aureus [14] = experiment: Antimicrobial activity against oxacillin-susceptible Staphylococcus aureus assessed as inhibition of microbial growth at =< 0.25 ug/ml by CLSI method
Staphylococcus aureus [15] = experiment: Antimicrobial activity against oxacillin-susceptible Staphylococcus aureus assessed as inhibition of microbial growth at 0.5 ug/ml by CLSI method
Staphylococcus [16] = experiment: Antimicrobial activity against linezolid-susceptible coagulase-negative Staphylococcus assessed as inhibition of microbial growth at =< 0.25 ug/ml by CLSI method
Staphylococcus [17] = experiment: Antimicrobial activity against linezolid-susceptible coagulase-negative Staphylococcus assessed as inhibition of microbial growth at 0.5 ug/ml by CLSI method
Staphylococcus aureus [18] = experiment: Antimicrobial activity against oxacillin-susceptible coagulase-negative Staphylococcus aureus assessed as inhibition of microbial growth at =< 0.25 ug/ml by CLSI method
Staphylococcus [19] = experiment: Antimicrobial activity against linezolid-resistant coagulase-negative Staphylococcus assessed as inhibition of microbial growth at =< 0.25 ug/ml by CLSI method
Staphylococcus [20] = experiment: Antimicrobial activity against linezolid-resistant coagulase-negative Staphylococcus assessed as inhibition of microbial growth at 0.5 ug/ml by CLSI method
Staphylococcus [21] = experiment: Antimicrobial activity against linezolid-resistant coagulase-negative Staphylococcus assessed as inhibition of microbial growth at 1 ug/ml by CLSI method
Staphylococcus [22] = experiment: Antimicrobial activity against linezolid-resistant coagulase-negative Staphylococcus assessed as inhibition of microbial growth at 2 ug/ml by CLSI method
Staphylococcus [23] = experiment: Antimicrobial activity against linezolid-resistant coagulase-negative Staphylococcus assessed as inhibition of microbial growth at 4 ug/ml by CLSI method
Staphylococcus aureus [24] = experiment: Ratio of Linezolid MIC90 to compound MIC90 for Linezolid-susceptible Staphylococcus aureus
Staphylococcus aureus [25] = experiment: Ratio of Linezolid MIC50 to compound MIC50 for Linezolid-susceptible Staphylococcus aureus
Staphylococcus aureus [26] = experiment: Antimicrobial activity against methicillin-resistant Staphylococcus aureus by CLSI method
Staphylococcus [27] = experiment: Antimicrobial activity against Linezolid and methicillin-resistant coagulase-negative Staphylococcus by CLSI method
Staphylococcus [28] = experiment: Antimicrobial activity against teicoplanin and methicillin-resistant coagulase-negative Staphylococcus by CLSI method
Staphylococcus aureus [29] = experiment: Ratio of Linezolid to compound activity for cfr-expressing methicillin-resistant Staphylococcus aureus
Staphylococcus aureus [30] = experiment: Antimicrobial activity against linezolid-susceptible Staphylococcus aureus assessed as percent susceptible strain by CLSI method
Staphylococcus aureus [31] = experiment: Antimicrobial activity against oxacillin-susceptible Staphylococcus aureus assessed as percent susceptible strain by CLSI method
Staphylococcus aureus [32] = experiment: Antimicrobial activity against oxacillin-resistant Staphylococcus aureus assessed as percent susceptible strain by CLSI method
Staphylococcus aureus [33] = experiment: Antimicrobial activity against linezolid-resistant Staphylococcus aureus assessed as percent susceptible strain by CLSI method
Staphylococcus [34] = experiment: Antimicrobial activity against linezolid-susceptible coagulase-negative Staphylococcus assessed as percent susceptible strain by CLSI method
[35] = Antimicrobial activity against oxacillin-susceptible coagulase-negative Staphylococcus aureus assessed as percent susceptible strain by CLSI method
Staphylococcus [36] = experiment: Antimicrobial activity against linezolid-resistant coagulase-negative Staphylococcus assessed as percent susceptible strain by CLSI method

Row | SMILES | MIC50 (Staphylococcus aureus [1]) | MIC90 (Staphylococcus aureus [1]) | MIC50 (Staphylococcus aureus [2]) | MIC90 (Staphylococcus aureus [2]) | MIC50 (Staphylococcus aureus [3]) | MIC90 (Staphylococcus aureus [3]) | MIC50 (Staphylococcus aureus [4]) | MIC50 (Staphylococcus [5]) | MIC90 (Staphylococcus [5]) | MIC50 (Staphylococcus [9]) | MIC90 (Staphylococcus [9]) | MIC50 (Staphylococcus [10]) | MIC90 (Staphylococcus [10]) | MIC50 (Staphylococcus [11]) | MIC (Staphylococcus [27]) | other results
1 | Cn1nnc(-c2ccc(-c3ccc(N4C[C@H](CO)OC4=O)cc3F)cn2)n1 [TEDIZOLID] | 0.25 µg/mL (≈ 0.675 µM) | 0.5 µg/mL (≈ 1.35 µM) | 0.25 µg/mL (≈ 0.675 µM) | 0.25 µg/mL (≈ 0.675 µM) | 0.25 µg/mL (≈ 0.675 µM) | 0.5 µg/mL (≈ 1.35 µM) | 0.5 µg/mL (≈ 1.35 µM) | 0.25 µg/mL (≈ 0.675 µM) | 0.25 µg/mL (≈ 0.675 µM) | 0.25 µg/mL (≈ 0.675 µM) | 0.25 µg/mL (≈ 0.675 µM) | 0.125 µg/mL (≈ 0.338 µM) | 0.25 µg/mL (≈ 0.675 µM) | 2 µg/mL (≈ 5.4 µM) | 0.25 µg/mL (≈ 0.675 µM) | inhibition at 0.5 µg/mL (Staphylococcus aureus [6]): 100%; inhibition (INH) (Staphylococcus aureus [7]): 70%; inhibition at 0.5 µg/mL (Staphylococcus aureus [8]): 100%; inhibition (INH) (Staphylococcus aureus [12]): 83.1%; inhibition at 0.5 µg/mL (Staphylococcus aureus [13]): 100%; inhibition (INH) (Staphylococcus aureus [14]): 99%; inhibition at 0.5 µg/mL (Staphylococcus aureus [15]): 100%; inhibition (INH) (Staphylococcus [16]): 99.5%; inhibition at 0.5 µg/mL (Staphylococcus [17]): 100%; inhibition (INH) (Staphylococcus aureus [18]): 100%; inhibition (INH) (Staphylococcus [19]): 20%; inhibition at 0.5 µg/mL (Staphylococcus [20]): 20%; inhibition at 1 µg/mL (Staphylococcus [21]): 20%; inhibition at 2 µg/mL (Staphylococcus [22]): 80%; inhibition at 4 µg/mL (Staphylococcus [23]): 100%; Ratio (Staphylococcus aureus [24]): 4; Ratio (Staphylococcus aureus [25]): 8; MIC (Staphylococcus aureus [26]): 0.5 µg/mL (≈ 1.35 µM); MIC (Staphylococcus [28]): 0.25 µg/mL (≈ 0.675 µM); Ratio (Staphylococcus aureus [29]): 32
2 | CN[C@H](CC(C)C)C(=O)N[C@H]1C(=O)N[C@@H](CC(N)=O)C(=O)N[C@H]2C(=O)N[C@H]3C(=O)N[C@H](C(=O)N[C@H](C(=O)O)c4cc(O)cc(O)c4-c4cc3ccc4O)[C@H](O)c3ccc(c(Cl)c3)Oc3cc2cc(c3O[C@@H]2O[C@H](CO)[C@@H](O)[C@H](O)[C@H]2O[C@H]2C[C@](C)(N)[C@H](O)[C@H](C)O2)Oc2ccc(cc2Cl)[C@H]1O [VANCOMYCIN] | 1 µg/mL (≈ 0.69 µM) | 1 µg/mL (≈ 0.69 µM) | 1 µg/mL (≈ 0.69 µM) | 1 µg/mL (≈ 0.69 µM) | 1 µg/mL (≈ 0.69 µM) | 2 µg/mL (≈ 1.38 µM) | 2 µg/mL (≈ 1.38 µM) | 2 µg/mL (≈ 1.38 µM) | 2 µg/mL (≈ 1.38 µM) | 2 µg/mL (≈ 1.38 µM) | 2 µg/mL (≈ 1.38 µM) | 2 µg/mL (≈ 1.38 µM) | 2 µg/mL (≈ 1.38 µM) | 2 µg/mL (≈ 1.38 µM) | 2 µg/mL (≈ 1.38 µM) | Activity (Staphylococcus aureus [30]): 99.6%; Activity (Staphylococcus aureus [31]): 100%; Activity (Staphylococcus aureus [32]): 99.2%; Activity (Staphylococcus aureus [33]): 100%; Activity (Staphylococcus [34]): 100%; Activity [35]: 100%; Activity (Staphylococcus [36]): 100%
